One experiment deals with T1, human GLP-1 receptor (Homo sapiens, UniProt P43220).
T1 construct: HA (N); expressed in transfected cells
T1 sequence (P43220 24-463): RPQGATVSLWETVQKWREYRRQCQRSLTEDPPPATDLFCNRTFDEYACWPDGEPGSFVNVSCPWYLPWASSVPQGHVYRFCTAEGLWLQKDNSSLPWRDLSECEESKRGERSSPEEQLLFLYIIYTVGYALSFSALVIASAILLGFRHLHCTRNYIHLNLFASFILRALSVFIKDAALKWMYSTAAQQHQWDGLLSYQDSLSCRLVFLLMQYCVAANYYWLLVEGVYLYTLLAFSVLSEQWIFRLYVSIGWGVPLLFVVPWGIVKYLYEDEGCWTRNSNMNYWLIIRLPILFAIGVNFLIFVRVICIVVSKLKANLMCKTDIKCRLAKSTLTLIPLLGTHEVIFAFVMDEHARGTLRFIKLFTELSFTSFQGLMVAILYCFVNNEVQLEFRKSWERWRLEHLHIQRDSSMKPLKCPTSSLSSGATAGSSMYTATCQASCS
As to the kind of experiment: GLP-1 receptor-mediated agonist activity: cAMP level in hGLP-1R/HEK293 cell line (HTRF). Type of experiment: cell-based. Particulars: cAMP levels in hGLP-1R/HEK293 cell line; Table 1; read-out: determined EC50. In general terms: Changes in cAMP serve as a functional read-out for many G protein-coupled receptors.
As usually defined, the EC50 is the concentration that produces a half-maximal response. As for `CC1(c2ccc(Cl)cn2)Oc2cccc(C3CCN(Cc4nc5c(OC(F)F)cc(C(=O)O)cc5n4C[C@@H]4CCO4)CC3)c2O1` (stereo partly drawn) [Compound 62, 2-((4-(2-(5-chloropyridin-2-yl)-2-methylbenzo[d][1,3]dioxol-4-yl)piperidin-1-yl)methyl)-4-(difluoromethoxy)-1-(((S)-oxetan-2-yl)methyl)-1H-benzo[d]imidazole-6-carboxylic acid], the EC50 was determined as 0.022 nM.
As for `COc1cc(C(=O)O)cc2c1nc(CN1CCC(c3cccnc3OCc3ccc(Cl)cc3F)CC1)n2C[C@@H]1CCO1` [Compound 31, (S)-2-((4-(2-((4-chloro-2-fluorobenzyl)oxy)pyridin-3-yl)piperidin-1-yl)methyl)-4-methoxy-1-(oxetan-2-ylmethyl)-1H-benzo[d]imidazole-6-carboxylic acid], the EC50 came to 0.037 nM.
As for `COc1cc(C(=O)O)cc2c1nc(CN1CCN(c3cccc(OCc4ccc(C#N)cc4F)n3)C=N1)n2C[C@@H]1CCO1` [Compound 8, (S)-2-((4-(6-((4-cyano-2-fluorobenzyl)oxy)pyridin-2-yl)-5,6-dihydro-1,2,4-triazin-1(4H)-yl)methyl)-4-methoxy-1-(oxetan-2-ylmethyl)-1H-benzo[d]imidazole-6-carboxylic acid], the EC50 worked out at 0.0034 nM.
Consider `COc1cc(C(=O)O)cc2c1nc(CN1CCC(c3ccccc3OCc3ccc(C#N)cc3F)CC1)n2C[C@@H]1CCO1` [Compound 47, (S)-2-((4-(2-((4-cyano-2-fluorobenzyl)oxy)phenyl)piperidin-1-yl)methyl)-4-methoxy-1-(oxetan-2-ylmethyl)-1H-benzo[d]imidazole-6-carboxylic acid], for which the EC50 came to 0.0613 nM.
As to `COc1cc(C(=O)O)cc2c1nc(CN1CCC(c3cccc(OCc4ccc(Cl)c5c4OCC5)n3)CC1)n2C[C@@H]1CCO1` [Compound 16, (S)-2-((4-(6-((4-chloro-2,3-dihydrobenzofuran-7-yl)methoxy)pyridin-2-yl)piperidin-1-yl)methyl)-4-methoxy-1-(oxetan-2-ylmethyl)-1H-benzo[d]imidazole-6-carboxylic acid], the EC50 came out at 0.0033 nM.
For `COc1cc(C(=O)O)cc2c1nc(CN1CCC(c3cccc4c3OC(C)(c3ccc(Cl)cc3F)O4)CC1)n2C[C@@H]1CCO1` (stereo partly drawn) [Compound 36, 2-((4-(2-(4-chloro-2-fluorophenyl)-2-methylbenzo[d][1,3]dioxol-4-yl)piperidin-1-yl)methyl)-4-methoxy-1-(((S)-oxetan-2-yl)methyl)-1H-benzo[d]imidazole-6-carboxylic acid], the EC50 was determined as 0.0083 nM.
Take `O=C(O)c1cc(OC2CC2)c2nc(CN3CCN(c4cccc(OCc5ccc(Cl)cc5F)n4)C=N3)n(C[C@@H]3CCO3)c2c1` [Compound 25, (S)-2-((4-(6-((4-chloro-2-fluorobenzyl)oxy)pyridin-2-yl)-5,6-dihydro-1,2,4-triazin-1(4H)-yl)methyl)-4-cyclopropyloxy-1-(oxetan-2-ylmethyl)-1H-benzo[d]imidazole-6-carboxylic acid]: the EC50 turned out to be 0.0118 nM.
Take `[2H]C([2H])([2H])Oc1cc(C(=O)O)cc2c1nc(CN1CCN(c3cccc4c3OC(C)(c3ccc(Cl)cc3F)O4)C=N1)n2C[C@@H]1CCO1` (stereo partly drawn) [Compound 71, 2-((4-(2-(4-chloro-2-fluorophenyl)-2-methylbenzo[d][1,3]dioxol-4-yl)-5,6-dihydro-1,2,4-triazin-1(4H)-yl)methyl)-4-(methoxy-d3)-1-(((S)-oxetan-2-yl)methyl)-1H-benzo[d]imidazole-6-carboxylic acid]: the EC50 was determined as 0.0175 nM.
Turning to `COc1cc(C(=O)O)cc2c1nc(CN1CCC(c3ccccc3OCc3ccc(Cl)c4c3OCC4)CC1)n2C[C@@H]1CCO1` [Compound 45, (S)-2-((4-(2-((4-chloro-2,3-dihydrobenzofuran-7-yl)methoxy)phenyl)piperidin-1-yl)methyl)-4-methoxy-1-(oxetan-2-ylmethyl)-1H-benzo[d]imidazole-6-carboxylic acid], the EC50 was 0.0509 nM.
For the molecule `CCOc1cc(C(=O)O)cc2c1nc(CN1CCN(c3cccc4c3OC(C)(c3ccc(C(F)(F)F)cc3OC)O4)C=N1)n2C[C@@H]1CCO1` (stereo partly drawn) [Compound 90, 4-ethoxy-2-((4-(2-(2-methoxy-4-(trifluoromethyl)phenyl)-2-methylbenzo[d][1,3]dioxol-4-yl)-5,6-dihydro-1,2,4-triazin-1(4H)-yl)methyl)-1-(((S)-oxetan-2-yl)methyl)-1H-benzo[d]imidazole-6-carboxylic acid], the EC50 was 0.0061 nM.
Turning to `COc1cc(C#N)ccc1COc1cccc(C2CCN(Cc3nc4c(OC)cc(C(=O)O)cc4n3C[C@@H]3CCO3)CC2)c1` [Compound 42, (S)-2-((4-(3-((4-cyano-2-methoxybenzyl)oxy)phenyl)piperidin-1-yl)methyl)-4-methoxy-1-(oxetan-2-ylmethyl)-1H-benzo[d]imidazole-6-carboxylic acid], the EC50 amounted to 0.0298 nM.
For `COc1cc(C(=O)O)cc2c1nc(CN1CCC(c3cccc(OCc4ccc(C#N)c5c4OCC5)c3)CC1)n2C[C@@H]1CCO1` [Compound 43, (S)-2-((4-(3-((4-cyano-2,3-dihydrobenzofuran-7-yl)methoxy)phenyl)piperidin-1-yl)methyl)-4-methoxy-1-(oxetan-2-ylmethyl)-1H-benzo[d]imidazole-6-carboxylic acid], the EC50 came to 0.0342 nM.
With `CCOc1cc(C(=O)O)cc2c1nc(CN1CCN(c3cccc(OCc4ccc(Cl)cc4F)n3)C=N1)n2C[C@@H]1CCO1` [Compound 21, (S)-2-((4-(6-((4-chloro-2-fluorobenzyl)oxy)pyridin-2-yl)-5,6-dihydro-1,2,4-triazin-1(4H)-yl)methyl)-4-ethoxy-1-(oxetan-2-ylmethyl)-1H-benzo[d]imidazole-6-carboxylic acid], the EC50 is 0.001 nM.
On to `[2H]C([2H])([2H])Oc1cc(C(=O)O)cc2c1nc(CN1CCN(c3cccc(OCc4ccc(C#N)cc4F)n3)C=N1)n2C[C@@H]1CCO1` [Compound 12, (S)-2-((4-(6-((4-cyano-2-fluorobenzyl)oxy)pyridin-2-yl)-5,6-dihydro-1,2,4-triazin-1(4H)-yl)methyl)-4-(methoxy-d3)-1-(oxetan-2-ylmethyl)-1H-benzo[d]imidazole-6-carboxylic acid], for which the EC50 was found to be 0.004 nM.
As for `COc1cc(C(=O)O)cc2c1nc(CN1CCC(c3cccc4c3OC(C)(c3ccc(C(F)(F)F)cc3F)O4)CC1)n2C[C@@H]1CCO1` (stereo partly drawn) [Compound 53, 2-((4-(2-(2-fluoro-4-(trifluoromethyl)phenyl)-2-methylbenzo[d][1,3]dioxol-4-yl)piperidin-1-yl)methyl)-4-methoxy-1-(((S)-oxetan-2-yl)methyl)-1H-benzo[d]imidazole-6-carboxylic acid], the EC50 was 0.0093 nM.
`N#Cc1ccc(COc2cccc(N3C=NN(Cc4nc5c(OC6CC6)cc(C(=O)O)cc5n4C[C@@H]4CCO4)CC3)n2)c(F)c1` [Compound 13, (S)-2-((4-(6-((4-cyano-2-fluorobenzyl)oxy)pyridin-2-yl)-5,6-dihydro-1,2,4-triazin-1(4H)-yl)methyl)-4-cyclopropyloxy-1-(oxetan-2-ylmethyl)-1H-benzo[d]imidazole-6-carboxylic acid]: the EC50 was determined as 0.0022 nM.
Turning to `CCOc1cc(C(=O)O)cc2c1nc(CN1CCC(c3cccc4c3OC(C)(c3ccc(C(F)(F)F)cn3)O4)CC1)n2C[C@@H]1CCO1` (stereo partly drawn) [Compound 56, 4-ethoxy-2-((4-(2-methyl-2-(5-(trifluoromethyl)pyridin-2-yl)benzo[d][1,3]dioxol-4-yl)piperidin-1-yl)methyl)-1-(((S)-oxetan-2-yl)methyl)-1H-benzo[d]imidazole-6-carboxylic acid], the EC50 came out at 0.0098 nM.
For the molecule `COc1cc(C(=O)O)cc2c1nc(CN1CCC(c3cccnc3OCc3ccc(C#N)c4c3OCC4)CC1)n2C[C@@H]1CCO1` [Compound 35, (S)-2-((4-(2-((4-cyano-2,3-dihydrobenzofuran-7-yl)methoxy)pyridin-3-yl)piperidin-1-yl)methyl)-4-methoxy-1-(oxetan-2-ylmethyl)-1H-benzo[d]imidazole-6-carboxylic acid], the EC50 turned out to be 0.0082 nM.
Take `CCOc1cc(C(=O)O)cc2c1nc(CN1CCC(c3cccc(OCc4ccc(Cl)cc4F)n3)CC1)n2C[C@@H]1CCO1` [Compound 29, (S)-2-((4-(6-((4-chloro-2-fluorobenzyl)oxy)pyridin-2-yl)piperidin-1-yl)methyl)-4-ethoxy-1-(oxetan-2-ylmethyl)-1H-benzo[d]imidazole-6-carboxylic acid]: the EC50 turned out to be 0.0022 nM.
For the molecule `[2H]C([2H])([2H])C([2H])([2H])Oc1cc(C(=O)O)cc2c1nc(CN1CCC(c3cccc4c3OC(C)(c3ccc(Cl)cc3F)O4)CC1)n2C[C@@H]1CCO1` (stereo partly drawn) [Compound 75, 2-((4-(2-(4-chloro-2-fluorophenyl)-2-methylbenzo[d][1,3]dioxol-4-yl)piperidin-1-yl)methyl)-4-(ethoxy-d5)-1-(((S)-oxetan-2-yl)methyl)-1H-benzo[d]imidazole-6-carboxylic acid], the EC50 is 0.003 nM.
Turning to “4-methoxy-2-((4-(2-(2-methoxy-4-(trifluoromethyl)phenyl)-2-methylbenzo[d][1,3]dioxol-4-yl)piperidin-1-yl)methyl)-1-((S)-oxetan-2-yl)methyl]-1H-benzo[d]imidazole-6-carboxylic acid [Compound 59]”, the EC50 turned out to be 0.0031 nM.

Staying with this experiment, now noted: cAMP levels of the hGLP-1R/HEK293 cell line; Table 2, comparison with reference compounds; read-out: EC50.
Turning to `CC1(c2ccc(Cl)cc2F)Oc2cccc(C3CCN(Cc4nc5ccc(C(=O)O)cc5n4C[C@@H]4CCO4)CC3)c2O1` (some centres unmarked) [WO2019239319 , Example 7, reference compound], the EC50 came to 0.022 nM.
Same read-out and setting: then `O=C(O)c1ccc2nc(CN3CCN(c4cccc(OCc5ccc(Cl)cc5F)n4)CC3)n(C[C@@H]3CCO3)c2c1` [WO2018109607 , Example 10A-08, reference compound], with 0.0289 nM.
Turning to `CC1(c2ccc(Cl)cc2F)Oc2cccc(N3C=NN(Cc4nc5ccc(C(=O)O)cc5n4C[C@@H]4CCO4)CC3)c2O1` (some centres unmarked) [CN2022114139828 , Compound 37, reference compound], the EC50 turned out to be 0.137 nM.
In the case of `O=C(O)c1ccc2nc(CN3CCC(c4cccnc4OCc4ccc(Cl)cc4F)CC3)n(C[C@@H]3CCO3)c2c1` [WO2019239371 , Example 1, reference compound], the EC50 was 0.0458 nM.
In the case of `O=C(O)c1ccc2nc(CN3CCC(c4cccc(OCc5ccc(Cl)cc5F)n4)CC3)n(C[C@@H]3CCO3)c2c1` [WO2018109607 , Example 3A-01, reference compound], the EC50 was determined as 0.0327 nM.

These data come from patent publication EP4650353A1 (Shanghai Institute of Materia Medica, Chinese Academy of …, priority 2023, dated 2024).
